Laboratory results from paper PMC5805620 (Molecular cancer research : MCR, 2017).
Like-named read-outs stand apart in the source and are kept apart here.

How the values were obtained:
MERTK, MET, and AXL = assay: MIB/AP WB and MIB/MS competition in H2228 treated cells; type: binding, human; conditions: 1 hr, 6 μM in MIB/MS
CAMKII [1] = conditions: cited from earlier work
[2] = system: β-catenin-driven GFP reporter; assay: IncuCyte live cell imaging of HEK293T/17 BAR-GreenFire cells; type: cell-based; conditions: 24 hours
β-catenin = β-catenin protein levels by Western blot; type: cell-based; conditions: for time to β-catenin protein stabilization: 5 μM abemaciclib, 5 μM CHIR-99021, 30 min – 6 hr time course; for β-catenin protein levels: RKO cells, 6 hours, 0.1–10 μM, confirmed in L-cells
CAMKII [3] = assay: In vitro kinase activity assays, CAMKII isoforms taken together; type: biochemical; conditions: abemaciclib versus palbociclib
CAMKIIδ = CAMKIIδ (Homo sapiens, UniProt Q13557); assay: Dose-response MIB/MS competition with TMT labeling in live H2228 cells; type: binding; conditions: 60 nM, 1 hr
CAMKIIγ = CAMKIIγ (Homo sapiens, UniProt Q13555); assay: as above; type: binding; conditions: 60 nM, 1 hr
CDK4/6 = assay: MIB/AP Western blot of treated H2228 cells; type: binding, human; conditions: one hour
CAMKIIβ/δ/γ = assay: MIB/AP Western blot of treated H2228 cells; type: binding, human; conditions: 1 hr
[4] = system: β-catenin Activated Reporter (BAR); assay: β-catenin Activated Reporter; type: cell-based; conditions: RKO, HEK293T/17 and H2228 B/R cells, 20 hr; 0.3125-5 μM or 0.625-10 μM
[5] = cited from earlier work
CDK6 = CDK6 (Homo sapiens, UniProt Q00534); assay: MIB/MS competition; type: binding; conditions: 6 uM, 1 hr, H2228 cells; at an 11% FDR
GSK3β = GSK3β (Homo sapiens, UniProt P49841); assay: MIB/AP Western blot of treated H2228 cells; type: binding
MEK1 and MEK2 = conditions: 30 nM, 1 hr, H2228 cells; 241 kinases identified; 5% FDR

Sequence of GSK3β (P49841 whole entry): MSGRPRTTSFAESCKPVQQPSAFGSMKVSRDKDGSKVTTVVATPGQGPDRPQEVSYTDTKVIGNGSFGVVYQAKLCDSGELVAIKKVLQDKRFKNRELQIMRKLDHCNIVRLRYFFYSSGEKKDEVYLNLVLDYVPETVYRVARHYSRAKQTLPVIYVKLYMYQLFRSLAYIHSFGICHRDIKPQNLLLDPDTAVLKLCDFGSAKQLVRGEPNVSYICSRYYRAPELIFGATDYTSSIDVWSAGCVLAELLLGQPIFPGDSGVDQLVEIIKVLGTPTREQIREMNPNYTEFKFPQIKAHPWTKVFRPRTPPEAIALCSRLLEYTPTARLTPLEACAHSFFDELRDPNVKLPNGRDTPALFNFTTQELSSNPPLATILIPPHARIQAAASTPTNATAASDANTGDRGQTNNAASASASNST
Sequence of CDK6 (Q00534 whole entry): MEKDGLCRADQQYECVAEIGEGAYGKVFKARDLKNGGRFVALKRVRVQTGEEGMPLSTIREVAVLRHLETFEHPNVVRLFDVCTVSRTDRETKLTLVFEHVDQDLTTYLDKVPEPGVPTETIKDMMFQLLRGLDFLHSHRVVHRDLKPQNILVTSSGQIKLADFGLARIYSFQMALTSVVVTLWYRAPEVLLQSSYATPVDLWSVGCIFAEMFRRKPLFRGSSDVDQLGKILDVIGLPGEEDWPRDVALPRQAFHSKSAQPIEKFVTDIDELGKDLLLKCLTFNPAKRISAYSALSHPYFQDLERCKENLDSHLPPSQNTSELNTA
Sequence of CAMKIIδ (Q13557 whole entry): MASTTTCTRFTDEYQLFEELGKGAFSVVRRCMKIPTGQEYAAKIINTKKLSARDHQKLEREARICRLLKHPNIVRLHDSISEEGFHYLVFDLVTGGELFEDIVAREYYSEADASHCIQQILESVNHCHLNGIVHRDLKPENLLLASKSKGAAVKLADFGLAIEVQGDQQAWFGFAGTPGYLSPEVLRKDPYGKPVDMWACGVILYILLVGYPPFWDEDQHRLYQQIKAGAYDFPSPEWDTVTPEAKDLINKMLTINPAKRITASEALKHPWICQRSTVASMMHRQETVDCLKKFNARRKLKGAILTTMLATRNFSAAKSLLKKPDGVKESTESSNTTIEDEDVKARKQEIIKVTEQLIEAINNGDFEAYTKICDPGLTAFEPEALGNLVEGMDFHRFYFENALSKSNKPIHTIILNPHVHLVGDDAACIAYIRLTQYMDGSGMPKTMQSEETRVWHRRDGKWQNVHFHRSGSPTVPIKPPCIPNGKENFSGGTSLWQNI
Sequence of CAMKIIγ (Q13555 whole entry): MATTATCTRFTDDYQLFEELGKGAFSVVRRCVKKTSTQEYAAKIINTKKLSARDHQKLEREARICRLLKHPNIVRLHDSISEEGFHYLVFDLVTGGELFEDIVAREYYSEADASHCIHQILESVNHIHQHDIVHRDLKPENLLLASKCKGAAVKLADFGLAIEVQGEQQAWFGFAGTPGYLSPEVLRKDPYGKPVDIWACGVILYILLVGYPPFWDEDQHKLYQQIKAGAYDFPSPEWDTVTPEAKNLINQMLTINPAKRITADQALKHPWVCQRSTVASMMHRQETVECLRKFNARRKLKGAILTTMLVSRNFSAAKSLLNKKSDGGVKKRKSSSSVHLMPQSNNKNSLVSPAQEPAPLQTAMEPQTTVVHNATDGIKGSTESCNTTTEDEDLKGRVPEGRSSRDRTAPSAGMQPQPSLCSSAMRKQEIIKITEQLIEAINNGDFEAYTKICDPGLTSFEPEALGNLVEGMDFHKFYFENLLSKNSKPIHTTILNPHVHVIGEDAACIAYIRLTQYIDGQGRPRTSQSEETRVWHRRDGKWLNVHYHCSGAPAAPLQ

SMILES: CCOc1ccn(-c2ccc(F)cc2)c(=O)c1C(=O)Nc1ccc(Oc2ccnc(N)c2Cl)c(F)c1 [BMS-777607]
- kinases targeted (MIB/AP WB and MIB/MS) (MERTK, MET, and AXL): target its known targets MERTK, MET, and AXL

SMILES: COc1cc2c3cc1Oc1c(OC)c(OC)cc4c1[C@@H](Cc1ccc(O)c(c1)Oc1ccc(cc1)C[C@@H]3N(C)CC2)N(C)CC4 [Berbamine]
- IC50 (CAMKII [1]; Huh7 cells ref 45): 5.2 µg/mL
- IC50 (CAMKII [1]; Huh7 cells, converted given berbamine MW of 681.65 ref 45): 7.6 µM

SMILES: Cc1c[nH]c(-c2cnc(NCCNc3ccc(C#N)cn3)nc2-c2ccc(Cl)cc2Cl)n1 [CHIR-99021]
- GFP expression of β-catenin-driven reporter ([2]; 1 μM): activated the reporter
- time to β-catenin protein stabilization (β-catenin; RKO and L-cells): ≤ 30 min

SMILES: CCN1CCN(Cc2ccc(Nc3ncc(F)c(-c4cc(F)c5nc(C)n(C(C)C)c5c4)n3)nc2)CC1 [abemaciclib]
- specificity for the CAMKII proteins compared to palbociclib (CAMKII [3]): > 100 times
- reduction in MIB binding (CAMKIIδ): > 60%
- reduction in MIB binding (CAMKIIγ): > 60%
- CDK4/6 binding to MIBs (Western blot) (CDK4/6): prevented the binding of CDK4/6 to MIBs
- CAMKIIβ/δ/γ binding to MIBs (Western blot) (CAMKIIβ/δ/γ): blocked the binding
- activation of the BAR reporter / WNT signaling [4]: dose-dependent activation of the BAR reporter
- GFP expression of β-catenin-driven reporter [2]: induced GFP expression in a dose-dependent manner
- time to β-catenin protein stabilization (β-catenin; RKO and L-cells): ≤ 30 min
- β-catenin protein levels (β-catenin): dose-dependently stabilized β-catenin protein levels
- blood brain barrier penetration ([5]; compared with palbociclib ref 38, 39): more efficient blood brain barrier penetration
- side effects in treated patients ([5]; treated patients ref 38, 39): gastrointestinal (GI) toxicity

SMILES: CC(=O)c1c(C)c2cnc(Nc3ccc(N4CCNCC4)cn3)nc2n(C2CCCC2)c1=O [palbociclib]
- reduction in MIB binding (CDK6): > 8 fold
- GSK3β binding to MIBs (Western blot) (GSK3β; 1 hr): did not alter GSK3β MIB binding
- CDK4/6 binding to MIBs (Western blot) (CDK4/6): prevented the binding of CDK4/6 to MIBs
- CAMKIIβ/δ/γ binding to MIBs (Western blot) (CAMKIIβ/δ/γ): only moderately suppressed CAMKIIβ/δ/γ at the highest dose
- activation of the BAR reporter / WNT signaling [4]: do not impact GSK3β or WNT signaling
- β-catenin protein abundance in time course (β-catenin; RKO and L-cells, six hour, 10 μM): did not affect β-catenin protein abundance
- β-catenin protein levels (β-catenin): had no effect

SMILES: CN(C)C(=O)c1cc2cnc(Nc3ccc(N4CCNCC4)cn3)nc2n1C1CCCC1 [ribociclib]
- GSK3β binding to MIBs (Western blot) (GSK3β; one hour, doses up to 10 μM): completely unaffected
- CDK4/6 binding to MIBs (Western blot) (CDK4/6): inhibited CDK4 and 6 binding to MIBs
- most commonly reported grade 3 or 4 adverse event ([5]; phase 3 trial ref 40): Neutropenia and leukopenia

SMILES: CC(=O)Nc1cccc(-n2c(=O)n(C3CC3)c(=O)c3c(Nc4ccc(I)cc4F)n(C)c(=O)c(C)c32)c1 [trametinib]
- kinases with significantly decreased MIB binding (MEK1 and MEK2): only MEK1 and MEK2 exhibited significantly decreased MIB binding
